The numbers were not newly measured in patent US20230000814A1, “PHARMACEUTICAL COMPOSITION COMPRISING STEROID COMPOUND AND OLOPATADINE” (TOKO YAKUHIN KOGYO CO., LTD., priority 2019, published 2023), which cites them from elsewhere.

Where two headings read alike, the source gives them in different places.

On to `CN(C)CC/C=C1/c2ccccc2COc2ccc(CC(=O)O)cc21` [olopatadine, Olopatadine], for which the solubility of olopatadine result by setting is: (around neutral pH) “very low”; (concentration 0.2% or more as olopatadine free base, solution having pH of 5 or higher) “not soluble”.
